The values below come from publication PMC4727773, “Design, Synthesis, and Biological Evaluation of New 2-Phenyl-4H-chromen-4-one Derivatives as Selective Cyclooxygenase-2 Inhibitors” (Scientia Pharmaceutica, 2014).

The term IC50 denotes the concentration at which inhibition is half-maximal. Lower therefore signals inhibition by little substance. Broadly, the melting point is the temperature of the solid-liquid transition.

The structures appear in SMILES notation.

One data set concerns the target T1, ovine COX-2 (Ovis aries, UniProt P79208).
T1 construct: purchased Cayman Chemical, Ann Arbor, MI, USA
T1 sequence (P79208 17-603): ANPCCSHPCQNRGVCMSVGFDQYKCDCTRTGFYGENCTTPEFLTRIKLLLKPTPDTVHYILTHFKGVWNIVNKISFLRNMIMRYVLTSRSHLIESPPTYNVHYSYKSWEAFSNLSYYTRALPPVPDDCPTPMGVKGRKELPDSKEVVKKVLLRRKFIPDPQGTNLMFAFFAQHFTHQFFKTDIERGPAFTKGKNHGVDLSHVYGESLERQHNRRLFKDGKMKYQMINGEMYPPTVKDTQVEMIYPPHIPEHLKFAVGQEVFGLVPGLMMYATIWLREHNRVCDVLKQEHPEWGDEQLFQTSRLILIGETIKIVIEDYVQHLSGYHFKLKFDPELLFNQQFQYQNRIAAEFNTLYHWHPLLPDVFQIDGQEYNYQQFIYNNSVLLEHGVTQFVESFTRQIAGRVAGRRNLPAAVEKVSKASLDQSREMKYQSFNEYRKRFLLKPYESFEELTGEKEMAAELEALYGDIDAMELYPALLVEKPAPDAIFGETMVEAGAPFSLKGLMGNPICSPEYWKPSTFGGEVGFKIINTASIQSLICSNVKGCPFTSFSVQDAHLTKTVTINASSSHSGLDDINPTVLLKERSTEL
Briefly: In vitro ovine COX-2 enzyme inhibition (chemiluminescent enzyme assay kit, Cayman). The data set is classed as biochemical. Conditions: for Selectivity index (SI): In vitro COX-2 selectivity index (COX-1 IC50/COX-2 IC50); for IC50: ovine COX-1/COX-2 assay kit, means of two determinations, deviation < 10% of the mean. How it is done: (§1) The ability of the test compounds listed in Table 1 to inhibit ovine COX-1 and COX-2 (IC50 value, μM) was determined using the chemiluminescent enzyme assay kit (Cayman Chemical, Ann Arbor, MI, USA) according to our previously reported method.

The target in a further data set is T2, ovine COX-1 (Ovis aries, UniProt P05979).
T2 construct: purchased Cayman Chemical, Ann Arbor, MI, USA
T2 sequence (P05979 25-600): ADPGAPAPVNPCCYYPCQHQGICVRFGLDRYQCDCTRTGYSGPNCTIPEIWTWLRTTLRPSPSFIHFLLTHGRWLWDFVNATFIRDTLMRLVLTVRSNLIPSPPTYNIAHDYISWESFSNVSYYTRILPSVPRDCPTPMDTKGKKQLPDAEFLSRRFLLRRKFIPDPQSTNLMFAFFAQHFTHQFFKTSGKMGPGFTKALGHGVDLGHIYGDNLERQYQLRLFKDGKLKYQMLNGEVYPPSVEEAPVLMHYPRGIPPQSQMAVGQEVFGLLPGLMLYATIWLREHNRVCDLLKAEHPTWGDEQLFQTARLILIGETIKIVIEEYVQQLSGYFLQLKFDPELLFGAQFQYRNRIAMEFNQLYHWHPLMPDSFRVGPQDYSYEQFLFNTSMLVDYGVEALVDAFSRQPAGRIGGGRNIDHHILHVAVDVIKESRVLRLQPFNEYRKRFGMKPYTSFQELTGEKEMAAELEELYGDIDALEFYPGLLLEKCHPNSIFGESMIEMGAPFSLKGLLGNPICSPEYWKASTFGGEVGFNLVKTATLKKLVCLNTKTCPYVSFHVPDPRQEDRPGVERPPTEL
The data set can be described thus: In vitro ovine COX-1 enzyme inhibition (chemiluminescent enzyme assay kit, Cayman). To be noted: ovine COX-1/COX-2 assay kit; means of two determinations, deviation < 10% of the mean. Type of data set: biochemical. On the procedure:
as §1

On to `CS(=O)(=O)c1ccc(-c2oc3ccccc3c(=O)c2O)cc1` [Compound 4, 3-Hydroxy-2-[4-(methylsulfonyl)phenyl]-4H-chromen-4-one], for which the melting point is 198 to 199 °C. Moreover, on ovine COX-2, the “Selectivity index (SI)” value is listed as 75.3 and half-maximal inhibition (IC50) required 0.13 µM. Also, the IC50 on ovine COX-1 was found to be 9.79 µM.
The matching figures for `CS(=O)(=O)c1ccc(-c2cc(=O)c3ccccc3o2)cc1` [Compound 3, 2-[4-(Methylsulfonyl)phenyl]-4H-chromen-4-one]: 187 °C, 98.2, 0.11 µM and 10.8 µM.
The matching figures for `CCOc1c(-c2ccc(S(C)(=O)=O)cc2)oc2ccccc2c1=O` [Compound 5b, 3-Ethoxy-2-[4-(methylsulfonyl)phenyl]-4H-chromen-4-one]: 137 to 138 °C, 149.1, 0.09 µM and 13.4 µM.
In the same order, the values of `COc1c(-c2ccc(S(C)(=O)=O)cc2)oc2ccccc2c1=O` [Compound 5a, 3-Methoxy-2-[4-(methylsulfonyl)phenyl]-4H-chromen-4-one] are 92 to 93 °C, 126.5, 0.1 µM and 12.7 µM.
Take `CC(=O)Oc1c(-c2ccc(S(C)(=O)=O)cc2)oc2ccccc2c1=O` [Compound 6, 2-[4-(Methylsulfonyl)phenyl]-4-oxo-4H-chromen-3-yl acetate]: the melting point was 175 °C. At ovine COX-2, the “Selectivity index (SI)” value came out at 195.6 and half-maximal inhibition (IC50) required 0.08 µM. On ovine COX-1, this molecule yielded a 50% inhibitory concentration (IC50) of 15.6 µM.
`CS(=O)(=O)c1ccc(-c2oc3ccccc3c(=O)c2OCc2ccccc2)cc1` [Compound 5d, 3-(Benzyloxy)-2-[4-(methylsulfonyl)phenyl]-4H-chromen-4-one] returned a melting point of 140 to 142 °C. Further, at ovine COX-2, the “Selectivity index (SI)” value was 287.1 and half-maximal inhibition (IC50) required 0.07 µM. For the same molecule, the IC50 against ovine COX-1 stood at 20.1 µM.
In turn, `C=CCOc1c(-c2ccc(S(C)(=O)=O)cc2)oc2ccccc2c1=O` [Compound 5c, 3-(Allyloxy)-2-[4-(methylsulfonyl)phenyl]-4H-chromen-4-one] had a melting point of 116 to 118 °C. At ovine COX-2, the “Selectivity index (SI)” value is given as 173.1 and half-maximal inhibition (IC50) was put at 0.08 µM. The molecule also yielded an IC50 against ovine COX-1 of 13.8 µM.
